EP0154117B1 (dated 1985)

Legend:
[1] = test system: alloreactive cytolytic T lymphocytes (CTL); assay: Induction of alloreactive cytolytic T lymphocytes (CTL) in MLC, 51Cr-release microcytotoxicity assay with P815 target cells; format: cell-based, mouse; settings: for minimum doses required to cause a significant effect (CTL generation in MLC): compared to control CTL generated in drug-free MLC
B6 Lymphocytes [2] = assay: Proliferative responses of lymphocytes to Con A and LPS (3H-TdR incorporation); settings: 1 to 10-^2 µg/ml
B6 Mice [3] = assay: Suppressor cells in treated mice: lymphocytes of treated mice added to a conventional MLC; format: in vivo, mouse; settings: 3 mg/kg; lymphocytes obtained 5 weeks later; 1-5x10^6 cells added to MLC; dose related
B6 Lymphocytes [4] = assay: Proliferative response of mouse lymphocytes to alloantigens in mixed lymphocyte cultures (MLC); format: cell-based; settings: 10-^2 and 10^-4 µg/ml; one-way, 5-day MLC
B6 Mice [5] = assay: Immunosuppression in vivo: lymphocytes from treated mice stimulated in MLC and tested for CTL cytotoxicity; design: species or system mouse; settings: for cytotoxicity of effector cells from treated mice: after 30 days of treatment

SMILES	minimum doses required to cause a significant effect (CTL generation in MLC) [1]	proliferation of these cells (Con A or LPS stimulated) (B6 Lymphocytes [2])	effect of cells from drug treated mice on CTL generation by normal lymphocytes (B6 Mice [3])	generation of CTL ([1]; 1 to 10-^4 µg/ml in MLC)	% lysis (CTL activity) ([1]; 10-^3 µg/ml added 2 days after setting up MLC, p < 0.001 vs control (% lysis = 52.0))	% lysis (CTL activity) ([1]; 10-^3 µg/ml added at the same time as initiation of MLC, control % lysis = 52.0)	% lysis (CTL activity) ([1]; 10-^3 µg/ml added one day after initiation of MLC, control % lysis = 52.0)	generation of CTL ([1]; 10-^4 mcg/ml)	% lysis (CTL activity) ([1]; 10-^5 mcg/mi added to MLC, p < 0.01 vs control CTL (% lysis = 45.7), 5 days)	duration of the suppressive effect (suppression after removal of compound) ([1]; 10^-3 µg/ml, compound removed from 1 MLC each day by washing, CTL tested after five days)	proliferation of B6 lymphocytes stimulated by D2 lymphocytes (B6 Lymphocytes [4])	CTL generation of lymphocytes from treated mice (B6 Mice [5]; 0.3 mg/kg, day 23 post treatment)	CTL generation by lymphocytes from drug-treated mice (B6 Mice [5]; 3 mg/kg i.p., lymphocytes prepared 2 weeks later, 5-day MLC, all E:T ratios tested)	cytotoxicity of effector cells from treated mice (B6 Mice [5]; 0.3 and 0.75 mg/kg)	CTL activity of lymphocytes from treated mice (B6 Mice [5]; 0.3 to 3.0 mg/kg, day 10 after treatment)	cytotoxicity of effector cells from treated mice (B6 Mice [5]; 1.5 an 3.0 mg/kg)
Cl.Cl.O=C1c2c(O)ccc(O)c2C(=O)c2c(NCCNCCO)ccc(NCCNCCO)c21 [Novantrone^TM, reference compound]	10^-3 µg/ml	–	–	–	–	–	–	–	–	–	–	–	–	–	–	–
Cl.Cl.NCCNc1ccc(NCCN)c2c1C(=O)c1c(O)ccc(O)c1C2=O	–	completely abolished	significantly prevented normal lymphocytes from becoming effective CTL	complete failure to generate CTL	22.0%	2.7%	6.4%	consistent failure to generate CTL	37.0%	irreversible	significantly prevented	typical CTL generation was evident	failed to become effective CTL	normal level of cytotoxicity	no CTL activity	still unable to do so
COc1cccc2c1C(=O)c1c(O)c3c(c(O)c1C2=O)C[C@@](O)(C(=O)CO)C[C@@H]3O[C@H]1C[C@H](N)[C@H](O)[C@H](C)O1 [Adriamycin, reference compound]	10^-1 µg/ml	–	–	–	–	–	–	–	–	–	–	–	–	–	–	–
